The subject of one experiment is F. culmorum. Description: Inhibitory effect of pure lipopeptides and their combinations on fungal growth.
For the next experiment, the system named is B. cinerea. The experiment is described as above.
[1] abbreviates: in the presence of surfactin, vs fengycin alone.
Setting [2] is: single lipopeptide, 25° C., 60 hours.
Setting [3] is: with surfactin at 100-200 μg/ml.

Experimental for B. cinerea: (§1) To further explore the potential synergistic effect between bioactive metabolites assays with single families of bioactive compounds and their combinations were performed.
(§2) Increasing concentrations of pure stocks of surfactin (Sigma S3523, FIG. 4A), fengycin (Sigma SMB00292, FIG. 4B) or iturin (Sigma 11774, FIG. 4C) were added to 48-well microtiter plates containing PDB medium and a fixed fungal spore concentration. Inhibitory effect over two different phytopathogenic species was assayed, F. culmorum (FIG. 4, left) and B. cinerea (FIG. 4, right). Plates were incubated at 25° C. without shaking for 60 hours (in dark conditions) and fungal growth was measured by spectrophotometry at 600 nm.
(§3) Fungal growth inhibition of increasing concentrations of single compounds was compared with compound combinations, where a fixed concentration of one of them was assayed in combination with increasing concentrations of the second metabolite.
Experimental for F. culmorum: as §1, §2, §3

On to fengycin, for which the “increase of bioactivity of fengycin in the presence of surfactin” value in the experiment with F. culmorum (setting [1]) and in the experiment on B. cinerea (setting [1]) was “up to 6 fold” throughout. In addition, the “inhibition of fungal growth” value in the experiment on F. culmorum (setting [2]) and with B. cinerea (setting [2]) was “potent inhibition of fungal growth” each time. The “effective concentration of fengycin required to inhibit growth” value in the experiment on F. culmorum (setting [3]) and in the experiment on B. cinerea (setting [3]) was 12.5 µg/mL each time.

With iturin, the “effective concentration for strong growth inhibition” value in the experiment with F. culmorum (setting [2]) and in the experiment on B. cinerea (setting [2]) was 9 µg/mL each time. In addition, the “inhibition of fungal growth” value in the experiment with F. culmorum (setting [2]) and with B. cinerea (setting [2]) was “potent inhibition of fungal growth” in each case.

Take surfactin: the “inhibitory effect on growth at high concentrations” value was “very modest and barely decreased the growth” with F. culmorum (200-400 μg/ml surfactin alone); “very modest and barely decreased the growth” in the experiment with B. cinerea (200-400 μg/ml surfactin alone). The “inhibition of fungal growth” value with F. culmorum (setting [2]) and in the experiment on B. cinerea (setting [2]) was “only compromised pathogen growth very weakly” throughout.

For the origin of these results see patent US20260324651A1 (priority 2022, published 2026).
